Test results published in ChEMBL document CHEMBL5500400, “Design and Discovery of a Potent and Selective Inhibitor of Integrin αvβ1” (J Med Chem, 2024).
Values belong to the compound of their own block, whether it stands above or below them.

Experiments:
Integrin alpha-V/beta-3 [1] = target: T1, Integrin alpha-V/beta-3 (Homo sapiens, UniProt P05106+P06756); test: Inhibition of recombinant human Integrin alphaVbeta3 using TMB as substrate incubated for 2 hrs in presence of vitronectin by ELISA; type: protein-complex assay
Integrin alpha-V/beta-8 [2] = target: T2, Integrin alpha-V/beta-8 (Homo sapiens, UniProt P06756+P26012); test: Inhibition of recombinant human Integrin alphaVbeta8 using TMB as substrate incubated for 2 hrs in presence of LAP by ELISA; type: protein-complex assay
Integrin alpha-V/beta-6 [3] = target: T3, Integrin alpha-V/beta-6 (Homo sapiens, UniProt P06756+P18564); test: Inhibition of recombinant human Integrin alphaVbeta6 using TMB as substrate incubated for 2 hrs in presence of LAP by ELISA; type: protein-complex assay
Integrin alpha-V/beta-5 = Integrin alpha-V/beta-5 (Homo sapiens, UniProt P06756+P18084); test: Inhibition of recombinant human Integrin alphaVbeta5 using TMB as substrate incubated for 2 hrs in presence of fibronectin by ELISA; type: protein-complex assay
Integrin alpha-V/beta-1 [4] = target: T4, Integrin alpha-V/beta-1 (Homo sapiens, UniProt P05556+P06756); test: Inhibition of recombinant human Integrin alphaVbeta1 using TMB as substrate incubated for 2 hrs in presence of fibronectin by ELISA; type: protein-complex assay
Integrin alpha-5/beta-1 [5] = target: T5, Integrin alpha-5/beta-1 (Homo sapiens, UniProt P05556+P08648); test: Inhibition of recombinant human Integrin alpha5beta1 using TMB as substrate incubated for 2 hrs in presence of fibronectin by ELISA; type: protein-complex assay
Integrin alpha-4/beta-1 [6] = target: T6, Integrin alpha-4/beta-1 (Homo sapiens, UniProt P05556+P13612); test: Inhibition of recombinant human Integrin alpha4beta1 using TMB as substrate incubated for 2 hrs in presence of VCAM-1 by ELISA; type: protein-complex assay
[7] = Cmax in Sprague-Dawley rat at 30 mg/kg,sc administration; type: ADME, organism-based; conditions: in vivo
[8] = Bioavailability in Sprague-Dawley rat at 30 mg/kg,sc administration; type: ADME, organism-based; conditions: in vivo
[9] = Oral bioavailability in Wistar rat at 10 mg/kg administration; type: ADME, organism-based; conditions: in vivo
Integrin alpha-V/beta-1 [10] = target: T4, Integrin alpha-V/beta-1; test: Inhibition of recombinant human Integrin alphaVbeta1 mediated cellular adhesion expressed in CHO-B2 cell incubated for 24 hrs in presence of Ca2+ and Mg2+ by real-time cell analysis; type: cell-based
[11] = AUC (0 to 24 hrs) in Wistar-Han rat at 1 mg/kg,iv administration; type: ADME, organism-based; conditions: in vivo
[12] = Apparent permeability across basolateral to apical side in dog MDCK-MDR1 cells incubated for 60 mins by HPLC analysis; type: ADME, cell-based, Canis lupus familiaris
[13] = AUC (0 to infinity) in Wistar-Han rat at 1 mg/kg,iv administration; type: ADME, organism-based; conditions: in vivo
[14] = Apparent permeability across apical to basolateral side in dog MDCK-MDR1 cells incubated for 60 mins by HPLC analysis; type: ADME, cell-based, Canis lupus familiaris
[15] = Volume of distribution at steady state in Wistar-Han rat at 1 mg/kg,iv administration; type: ADME, organism-based; conditions: in vivo, read-out: Vdss
[16] = Half life in Wistar-Han rat at 1 mg/kg,iv administration; type: ADME, organism-based; conditions: in vivo
[17] = AUC (0 to 24 hrs) in Sprague-Dawley rat at 30 mg/kg,sc administration; type: ADME, organism-based; conditions: in vivo
Integrin alpha-4/beta-1 [18] = target: T6, Integrin alpha-4/beta-1; test: Inhibition of Integrin alpha4beta1 mediated cellular adhesion in human Jurkat cells incubated for 24 hrs in presence of Ca2+ and Mg2+ by real-time cell analysis; type: cell-based
Integrin alpha-8/beta-1 = Integrin alpha-8/beta-1 (Homo sapiens, UniProt P05556+P53708); test: Inhibition of recombinant human Integrin alpha8beta1 mediated cellular adhesion expressed in HEK cells incubated for 24 hrs in presence of Ca2+ and Mg2+ by real-time cell analysis; type: cell-based
[19] = Half life in Wistar rat at 10 mg/kg,po administration; type: ADME, organism-based; conditions: in vivo
[20] = Drug concentration in choline-deficient high-fat diet induced Wistar-Han rat plasma at sc administration for 6 weeks from period of week 7 to 12 during high-fat diet treatment; type: ADME, organism-based; conditions: in vivo, 1008 h
[21] = Clearance in Wistar-Han rat at 1 mg/kg,iv administration; type: ADME, organism-based; conditions: in vivo
[22] = Tmax in Wistar rat at 10 mg/kg,po administration; type: ADME, organism-based; conditions: in vivo
[23] = Cmax in Wistar rat at 10 mg/kg,po administration; type: ADME, organism-based; conditions: in vivo
[24] = Drug concentration in choline-deficient high-fat diet induced Wistar-Han rat liver at sc administration for 6 weeks from period of week 7 to 12 during high-fat diet treatment; type: ADME, organism-based; conditions: in vivo, 1008 h
Integrin alpha-V/beta-3 [25] = target: T1, Integrin alpha-V/beta-3; test: Inhibition of recombinant human Integrin alphaVbeta3 mediated cellular adhesion expressed in HEK cells incubated for 24 hrs in presence of Ca2+ and Mg2+ by real-time cell analysis; type: cell-based
Rattus norvegicus = test: Antifibrotic activity against choline-deficient high-fat diet induced Wistar-Han rat liver fibrosis model assessed as reduction in liver fibrosis at sc administration for 6 weeks from period of week 7 to 12 during high-fat diet treatment by picrosirius red staining based analysis; type: functional, organism-based
[26] = Half life in Sprague-Dawley rat at 30 mg/kg,sc administration; type: ADME, organism-based; conditions: in vivo
Integrin alpha-V/beta-6 [27] = target: T3, Integrin alpha-V/beta-6; test: Inhibition of human Integrin alphaVbeta6 expressed in SW480 cells cocultured with TGF-beta expressing Mv1Lu cells assessed as inhibition of integrin alphaVbeta6 mediated TGF-beta transactivation by luciferase assay; type: cell-based
Integrin alpha-5/beta-1 [28] = target: T5, Integrin alpha-5/beta-1; test: Inhibition of Integrin alpha5beta1 mediated cellular adhesion in human HCT-116 cells incubated for 24 hrs in presence of Ca2+ and Mg2+ by real-time cell analysis; type: cell-based
[29] = Tmax in Sprague-Dawley rat at 30 mg/kg,sc administration; type: ADME, organism-based; conditions: in vivo
[30] = AUC (0 to infinity) in Wistar rat at 10 mg/kg,po administration; type: ADME, organism-based; conditions: in vivo
Integrin alpha-V/beta-1 [31] = target: T4, Integrin alpha-V/beta-1; test: Inhibition of human Integrin alphaVbeta1 expressed in CHO-B2 cell cocultured with TGF-beta expressing Mv1Lu cells assessed as inhibition of integrin alphaVbeta1 mediated TGF-beta transactivation by luciferase assay; type: cell-based
Integrin alpha-V/beta-8 [32] = target: T2, Integrin alpha-V/beta-8; test: Inhibition of Integrin alphaVbeta8 in human SNB-19 cells cocultured with TGF-beta expressing Mv1Lu cells assessed as inhibition of integrin alphaVbeta8 mediated TGF-beta transactivation by luciferase assay; type: cell-based
[33] = AUC (0 to infinity) in Sprague-Dawley rat at 30 mg/kg,sc administration; type: ADME, organism-based; conditions: in vivo
[34] = AUC (0 to 24 hrs) in Wistar rat at 10 mg/kg,po administration; type: ADME, organism-based; conditions: in vivo

T4 sequence (P05556 21-798 limits assumed): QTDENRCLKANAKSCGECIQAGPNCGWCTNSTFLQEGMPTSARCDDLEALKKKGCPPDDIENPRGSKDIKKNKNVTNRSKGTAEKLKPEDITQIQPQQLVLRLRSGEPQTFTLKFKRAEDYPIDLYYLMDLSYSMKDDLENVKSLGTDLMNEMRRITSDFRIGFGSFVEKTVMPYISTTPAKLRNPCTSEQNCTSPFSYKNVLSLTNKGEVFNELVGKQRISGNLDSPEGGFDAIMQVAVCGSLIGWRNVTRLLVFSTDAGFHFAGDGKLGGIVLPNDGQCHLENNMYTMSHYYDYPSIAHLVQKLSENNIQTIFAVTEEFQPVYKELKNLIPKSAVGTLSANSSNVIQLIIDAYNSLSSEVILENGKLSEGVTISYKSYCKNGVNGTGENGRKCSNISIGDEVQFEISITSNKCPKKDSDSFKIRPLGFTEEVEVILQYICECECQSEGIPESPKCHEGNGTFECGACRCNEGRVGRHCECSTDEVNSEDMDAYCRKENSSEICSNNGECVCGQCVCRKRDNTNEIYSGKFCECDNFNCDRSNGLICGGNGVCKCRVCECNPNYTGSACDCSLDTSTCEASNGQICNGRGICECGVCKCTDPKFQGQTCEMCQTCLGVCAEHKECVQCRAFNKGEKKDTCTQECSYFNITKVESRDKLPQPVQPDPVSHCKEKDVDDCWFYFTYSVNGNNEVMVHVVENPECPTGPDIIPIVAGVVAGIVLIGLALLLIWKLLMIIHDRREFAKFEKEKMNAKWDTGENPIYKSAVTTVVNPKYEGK
T4 sequence (P06756 31-889 limits assumed): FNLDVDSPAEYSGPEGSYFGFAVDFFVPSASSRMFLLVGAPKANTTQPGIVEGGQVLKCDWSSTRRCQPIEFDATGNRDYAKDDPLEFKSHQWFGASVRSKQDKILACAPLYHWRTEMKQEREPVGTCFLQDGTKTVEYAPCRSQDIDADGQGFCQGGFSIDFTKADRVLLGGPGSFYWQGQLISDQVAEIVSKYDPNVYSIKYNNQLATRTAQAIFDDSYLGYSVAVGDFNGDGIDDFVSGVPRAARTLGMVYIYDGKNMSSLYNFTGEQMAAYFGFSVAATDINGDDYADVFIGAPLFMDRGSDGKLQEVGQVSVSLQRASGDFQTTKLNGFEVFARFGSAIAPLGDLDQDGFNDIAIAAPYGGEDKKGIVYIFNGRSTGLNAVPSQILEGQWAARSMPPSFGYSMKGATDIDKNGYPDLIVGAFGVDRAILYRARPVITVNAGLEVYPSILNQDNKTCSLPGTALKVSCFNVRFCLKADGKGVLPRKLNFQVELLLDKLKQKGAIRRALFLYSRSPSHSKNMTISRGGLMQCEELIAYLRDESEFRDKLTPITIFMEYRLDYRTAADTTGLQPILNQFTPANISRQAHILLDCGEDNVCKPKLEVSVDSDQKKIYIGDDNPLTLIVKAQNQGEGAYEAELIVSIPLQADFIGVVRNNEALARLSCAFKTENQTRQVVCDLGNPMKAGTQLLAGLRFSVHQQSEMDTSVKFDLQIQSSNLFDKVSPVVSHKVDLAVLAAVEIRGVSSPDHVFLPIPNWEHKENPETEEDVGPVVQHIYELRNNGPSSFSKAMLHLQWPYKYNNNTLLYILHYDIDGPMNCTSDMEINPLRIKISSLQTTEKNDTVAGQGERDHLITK
T4 sequence (P06756 891-1048 limits assumed): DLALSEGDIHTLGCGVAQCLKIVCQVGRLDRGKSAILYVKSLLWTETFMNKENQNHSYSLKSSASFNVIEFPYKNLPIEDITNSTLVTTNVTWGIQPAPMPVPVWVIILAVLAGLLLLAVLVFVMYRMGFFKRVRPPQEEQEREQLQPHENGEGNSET
T5 sequence (P05556 21-798 limits assumed): as the sequence (P05556 21-798 limits assumed) above
T5 sequence (P08648 42-894 limits assumed): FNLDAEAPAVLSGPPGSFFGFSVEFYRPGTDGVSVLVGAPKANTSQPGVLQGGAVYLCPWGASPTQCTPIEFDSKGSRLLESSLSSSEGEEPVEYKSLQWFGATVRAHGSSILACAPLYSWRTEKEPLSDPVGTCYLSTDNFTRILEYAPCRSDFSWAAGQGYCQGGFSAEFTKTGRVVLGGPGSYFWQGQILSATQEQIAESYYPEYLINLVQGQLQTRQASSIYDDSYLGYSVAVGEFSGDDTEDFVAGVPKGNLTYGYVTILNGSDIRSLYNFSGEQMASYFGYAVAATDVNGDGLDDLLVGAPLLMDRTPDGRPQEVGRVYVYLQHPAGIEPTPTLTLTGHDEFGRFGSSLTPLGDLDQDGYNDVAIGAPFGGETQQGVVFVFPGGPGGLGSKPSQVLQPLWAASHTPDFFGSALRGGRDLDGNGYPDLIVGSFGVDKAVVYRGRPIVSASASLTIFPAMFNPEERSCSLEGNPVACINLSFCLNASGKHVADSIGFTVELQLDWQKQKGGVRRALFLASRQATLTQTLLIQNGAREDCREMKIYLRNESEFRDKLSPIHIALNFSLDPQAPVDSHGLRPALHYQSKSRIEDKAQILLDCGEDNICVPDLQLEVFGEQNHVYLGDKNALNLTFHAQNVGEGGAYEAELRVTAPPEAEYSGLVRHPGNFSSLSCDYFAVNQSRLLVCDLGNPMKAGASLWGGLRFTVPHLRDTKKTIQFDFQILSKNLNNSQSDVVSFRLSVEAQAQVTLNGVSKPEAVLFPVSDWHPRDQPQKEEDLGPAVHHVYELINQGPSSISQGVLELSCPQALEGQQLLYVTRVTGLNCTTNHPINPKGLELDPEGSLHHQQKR
T5 sequence (P08648 895-1049 limits assumed): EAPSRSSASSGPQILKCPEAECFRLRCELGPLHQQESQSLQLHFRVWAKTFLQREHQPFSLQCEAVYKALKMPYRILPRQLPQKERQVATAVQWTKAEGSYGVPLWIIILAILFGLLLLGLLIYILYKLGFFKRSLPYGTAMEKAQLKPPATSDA
T2 sequence (P06756 31-889 limits assumed): as the sequence (P06756 31-889 limits assumed) above
T2 sequence (P06756 891-1048 limits assumed): as the sequence (P06756 891-1048 limits assumed) above
T2 sequence (P26012 43-769 limits assumed): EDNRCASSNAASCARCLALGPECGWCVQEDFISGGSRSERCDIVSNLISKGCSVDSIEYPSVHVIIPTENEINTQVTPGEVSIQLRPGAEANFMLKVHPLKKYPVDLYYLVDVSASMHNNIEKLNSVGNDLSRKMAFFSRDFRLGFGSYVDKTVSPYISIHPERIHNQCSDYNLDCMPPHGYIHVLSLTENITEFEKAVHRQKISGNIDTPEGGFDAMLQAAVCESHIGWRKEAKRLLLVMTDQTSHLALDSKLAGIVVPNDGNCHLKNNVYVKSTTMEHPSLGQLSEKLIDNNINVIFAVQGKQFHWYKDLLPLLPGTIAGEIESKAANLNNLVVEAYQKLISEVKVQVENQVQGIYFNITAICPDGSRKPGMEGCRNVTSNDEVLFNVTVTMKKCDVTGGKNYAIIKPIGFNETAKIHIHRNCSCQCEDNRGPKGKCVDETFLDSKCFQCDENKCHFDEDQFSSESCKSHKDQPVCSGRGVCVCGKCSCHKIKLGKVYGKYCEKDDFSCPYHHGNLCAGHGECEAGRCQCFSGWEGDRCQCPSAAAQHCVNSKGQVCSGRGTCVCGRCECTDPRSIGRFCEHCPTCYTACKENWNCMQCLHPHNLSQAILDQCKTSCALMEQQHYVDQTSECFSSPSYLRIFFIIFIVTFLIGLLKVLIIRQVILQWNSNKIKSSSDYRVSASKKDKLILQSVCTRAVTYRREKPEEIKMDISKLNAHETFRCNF
T3 sequence (P06756 31-889 limits assumed): as the sequence (P06756 31-889 limits assumed) above
T3 sequence (P06756 891-1048 limits assumed): as the sequence (P06756 891-1048 limits assumed) above
T3 sequence (P18564 22-788 limits assumed): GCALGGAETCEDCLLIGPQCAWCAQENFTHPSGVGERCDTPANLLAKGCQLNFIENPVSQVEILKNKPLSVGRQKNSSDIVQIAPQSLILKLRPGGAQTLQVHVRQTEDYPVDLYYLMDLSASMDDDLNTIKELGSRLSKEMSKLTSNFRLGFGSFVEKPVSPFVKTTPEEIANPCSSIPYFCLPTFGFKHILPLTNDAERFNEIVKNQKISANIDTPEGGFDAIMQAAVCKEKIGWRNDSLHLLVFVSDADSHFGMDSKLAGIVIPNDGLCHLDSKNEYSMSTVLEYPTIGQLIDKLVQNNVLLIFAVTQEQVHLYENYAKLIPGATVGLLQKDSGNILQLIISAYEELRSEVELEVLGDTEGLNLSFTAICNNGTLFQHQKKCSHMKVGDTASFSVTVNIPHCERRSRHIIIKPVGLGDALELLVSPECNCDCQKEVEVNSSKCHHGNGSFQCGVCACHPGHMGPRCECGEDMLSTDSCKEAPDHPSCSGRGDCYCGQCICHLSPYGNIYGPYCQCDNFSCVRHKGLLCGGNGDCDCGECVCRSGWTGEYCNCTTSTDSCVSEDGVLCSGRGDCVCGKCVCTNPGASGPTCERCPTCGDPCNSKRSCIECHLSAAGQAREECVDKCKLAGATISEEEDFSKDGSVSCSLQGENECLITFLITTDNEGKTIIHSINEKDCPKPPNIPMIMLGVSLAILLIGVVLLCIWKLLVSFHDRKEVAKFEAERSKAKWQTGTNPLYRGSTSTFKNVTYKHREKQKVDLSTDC

SMILES: O=C(NC(CNc1ccc(N2CCNC2=O)cc1)C(=O)O)c1c(Cl)cccc1Cl (racemic)
IC50 (Integrin alpha-V/beta-3 [1]): 3.98 µM
IC50 (Integrin alpha-V/beta-8 [2]): 7.94 µM
IC50 (Integrin alpha-V/beta-6 [3]): > 10 µM
IC50 (Integrin alpha-V/beta-5): 1.26 µM
IC50 (Integrin alpha-V/beta-1 [4]): 0.2 µM
IC50 (Integrin alpha-5/beta-1 [5]): 0.631 µM
IC50 (Integrin alpha-4/beta-1 [6]): 0.2 µM

SMILES: O=C(NC(Cc1ccccc1)C(=O)O)c1ccc(Cl)cc1Cl (stereo not given)
IC50 (Integrin alpha-V/beta-3 [1]): > 31.6 µM
IC50 (Integrin alpha-V/beta-8 [2]): > 31.6 µM
IC50 (Integrin alpha-V/beta-6 [3]): > 31.6 µM
IC50 (Integrin alpha-V/beta-5): > 31.6 µM
IC50 (Integrin alpha-V/beta-1 [4]): 5.01 µM
IC50 (Integrin alpha-5/beta-1 [5]): > 31.6 µM

SMILES: Cc1ccc(Cl)c(C(=O)N[C@@H](CNC(=O)Cn2c(=O)[nH]c3nc(C)c(F)cc32)C(=O)O)c1F
Cmax [7]: 66000 ng/mL
bioavailability [8]: 59%
bioavailability [9]: 1.3%
IC50 (Integrin alpha-V/beta-1 [10]): 0.427 µM
AUC(0-t) [11]: 44000 ng·h/mL
Papp B→A at 1 h [12]: 3.2 ×10⁻⁶ cm/s
AUC(0-inf) [13]: 44000 ng·h/mL
Papp A→B at 1 h [14]: 3 ×10⁻⁶ cm/s
Vd [15]: 0.087 L/kg
half-life [16]: 3.32 h
AUC(0-t) [17]: 630000 ng·h/mL
IC50 (Integrin alpha-V/beta-1 [4]): 0.000316 µM
IC50 (Integrin alpha-4/beta-1 [18]): > 31.6 µM
IC50 (Integrin alpha-8/beta-1): > 31.6 µM
half-life [19]: 5.2 h
Drug uptake [20]: Dose-Dependent Effect
clearance [21]: 0.38 mL/min/kg
Tmax [22]: 2.8 h
Cmax [23]: 390 ng/mL
Drug uptake [24]: Dose-Dependent Effect
IC50 (Integrin alpha-V/beta-3 [25]): > 10 µM
Activity (Rattus norvegicus): Dose-Dependent Effect
half-life [26]: 3.3 h
IC50 (Integrin alpha-V/beta-6 [27]): > 10 µM
IC50 (Integrin alpha-5/beta-1 [28]): > 31.6 µM
Tmax [29]: 4.7 h
AUC(0-inf) [30]: 4800 ng·h/mL
IC50 (Integrin alpha-V/beta-1 [31]): 0.0437 µM
IC50 (Integrin alpha-V/beta-8 [32]): 9.55 µM
AUC(0-inf) [33]: 630000 ng·h/mL
AUC(0-t) [34]: 4500 ng·h/mL

The remaining lines, values ahead:

IC50 (Integrin alpha-V/beta-3 [1]): > 10 µM
IC50 (Integrin alpha-V/beta-8 [2]): 6.31 µM
IC50 (Integrin alpha-V/beta-6 [3]): > 10 µM
IC50 (Integrin alpha-V/beta-5): > 10 µM
IC50 (Integrin alpha-V/beta-1 [4]): 0.0316 µM
IC50 (Integrin alpha-5/beta-1 [5]): 0.631 µM
IC50 (Integrin alpha-4/beta-1 [6]): > 10 µM
SMILES: O=C(Cn1c(=O)[nH]c2ncccc21)NC[C@H](NC(=O)c1c(F)cc(-c2ccccc2)cc1Cl)C(=O)O

IC50 (Integrin alpha-V/beta-3 [1]): 5.01 µM
IC50 (Integrin alpha-V/beta-8 [2]): 2 µM
IC50 (Integrin alpha-V/beta-6 [3]): 3.98 µM
IC50 (Integrin alpha-V/beta-5): 3.98 µM
IC50 (Integrin alpha-V/beta-1 [4]): 0.000631 µM
IC50 (Integrin alpha-5/beta-1 [5]): 0.0631 µM
IC50 (Integrin alpha-4/beta-1 [6]): 1.58 µM
SMILES: Cc1ccc(Cl)c(C(=O)N[C@@H](CNC(=O)Cn2c(=O)[nH]c3ncccc32)C(=O)O)c1F

IC50 (Integrin alpha-V/beta-3 [1]): > 10 µM
IC50 (Integrin alpha-V/beta-8 [2]): 6.31 µM
IC50 (Integrin alpha-V/beta-6 [3]): > 10 µM
IC50 (Integrin alpha-V/beta-5): > 10 µM
IC50 (Integrin alpha-V/beta-1 [4]): 0.00398 µM
IC50 (Integrin alpha-5/beta-1 [5]): 0.398 µM
IC50 (Integrin alpha-4/beta-1 [6]): 3.16 µM
SMILES: O=C(Cn1c(=O)[nH]c2ncccc21)NC[C@H](NC(=O)c1c(Cl)cccc1Cl)C(=O)O
